# Measured values published in patent US12428406B2 (PMV Pharmaceuticals, Inc., priority 2019, dated 2025).
# Target: T1, p53 Y220C (Homo sapiens, UniProt P04637, Y220C)
# T1 construct: The recombinant protein was a truncation mutant containing only amino acids 94-312 of p53; made in house; host or cells: E. coli
# Test: In vitro DNA binding activity assay (HTRF / TR-FRET): stabilization of p53 Y220C and increase of its DNA binding activity
# Type: biochemical
# Settings: recombinant His-tagged p53 Y220C DNA binding domain (aa 94-312), biotin-labeled consensus DNA, incubated at 27° C. or 29° C. for 60 min
# Outline: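 Test compounds, diluted 3-fold in DMSO from 4.5 mM stocks, were incubated with bacterially expressed His-tagged p53 Y220C at room temperature for 15 min, and after a further step for 20 min. DNA binding was detected by time-resolved FRET between APC and europium labels. SC150 marks the concentration increasing binding by 50%.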
# T1 sequence (P04637 94-312, change not shown): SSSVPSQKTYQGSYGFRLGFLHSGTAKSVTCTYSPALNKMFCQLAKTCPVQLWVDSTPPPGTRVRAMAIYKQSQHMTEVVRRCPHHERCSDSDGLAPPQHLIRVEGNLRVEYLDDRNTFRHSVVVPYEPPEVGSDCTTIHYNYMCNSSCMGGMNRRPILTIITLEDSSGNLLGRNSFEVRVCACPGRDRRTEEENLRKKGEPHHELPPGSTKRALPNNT
row,Compound,SC150 (concentration of the compound required to increase the DNA binding activity by 50%)
1,"COc1cc(S(C)(=O)=O)ccc1NCC#Cc1cc2c(N[C@H]3CC[C@@H](N4CC5(CCOCC5)C4)CC3)cccc2n1CC(F)(F)F [Compound 293A, 2-{3-[(4-methane-sulfonyl-2-methoxy-phenyl)amino]prop-1-yn-1-yl}-N-[(1S,4S)-4-{7-oxa-2-azaspiro[3.5]nonan-2-yl}cyclo-hexyl]-1-(2,2,2-trifluoro-ethyl)-1H-indol-4-amine]",+ (+ = 0 μM ≤ SC150 < 0.05 μM)
2,"COc1cc(C(C)(C)C#N)ncc1NCC#Cc1cc2c(NC3CCN(C)CC3)cccc2n1CC(F)(F)F [Compound 468A, 2-{4-methoxy-5-[(3-{4-[(1-methylpiperidin-4-yl)amino]-1-(2,2,2-trifluoroethyl)-1H-indol-2-yl}prop-2-yn-1-yl)amino]pyridin-2-yl}-2-methylpropanenitrile]",+ (+ = 0 μM ≤ SC150 < 0.05 μM)
3,"CNC(=O)c1ccc(NCC#Cc2cc3c(N[C@H]4CC[C@H](N(C)C)CC4)cccc3n2CC(F)(F)F)c(OCF)c1 [Compound 106A, 3-(fluoromethoxy)-N-methyl-4-{[3-(4-{[(1R,4R)-4-(dimethyl-amino)cyclohexyl]amino}-1-(2,2,2-trifluoro-ethyl)-1H-indol-2-yl)prop-2-yn-1-yl]amino}benzamide]",+ (+ = 0 μM ≤ SC150 < 0.05 μM)
4,"CCOc1cc(S(C)(=O)=O)ccc1NCC#Cc1cc2c(N[C@H]3CC[C@H](N4CC5(CCOCC5)C4)CC3)cccc2n1CC(F)(F)F [Compound 329A, N-((1R,4R)-4-(7-oxa-2-azaspiro[3.5]nonan-2-yl)cyclohexyl)-2-(3-((2-ethoxy-4-(methylsulfonyl)phenyl)amino)prop-1-yn-1-yl)-1-(2,2,2-trifluoroethyl)-1H-indol-4-amine]",+ (+ = 0 μM ≤ SC150 < 0.05 μM)
5,"COc1cc(S(C)(=O)=O)ccc1NCC#Cc1cc2c(NC(=O)N3CCN(C)CC3)cccc2n1CC(F)(F)F [Compound 8A, N-(2-{3-[(4-methanesulfonyl-2-methoxyphenyl)amino]prop-1-yn-1-yl}-1-(2,2,2-trifluoroethyl)-1H-indol-4-yl)-4-methylpiperazine-1-carboxamide]",++++ (++++ = 0.2 μM ≤ SC150 < 1 μM)
6,"COc1cc(S(=O)(=O)NC2CCOCC2)ccc1NCC#Cc1cc2c(N[C@H]3CC[C@H](N(C)C)CC3)cccc2n1CC(F)(F)F [Compound 49A, 3-methoxy-N-(oxan-4-yl)-4-{[3-(4-{[(1R,4R)-4-(dimethylamino)cyclohexyl]amino}-1-(2,2,2-trifluoroethyl)-1H-indol-2-yl)prop-2-yn-1-yl]amino}benzene-1-sulfonamide]",+ (+ = 0 μM ≤ SC150 < 0.05 μM)
7,"COc1cc(S(=O)(=O)NC(C)=O)ccc1NCC#Cc1cc2c(N[C@H]3CC[C@H](N4CC5(CCOCC5)C4)CC3)cccc2n1CC(F)(F)F [Compound 305A, N-((4-((3-(4-(((1R,4R)-4-(7-oxa-2-azaspiro[3.5]nonan-2-yl)cyclohexyl)amino)-1-(2,2,2-trifluoroethyl)-1H-indol-2-yl)prop-2-yn-1-yl)amino)-3-methoxyphenyl)sulfonyl)acetamide]",+ (+ = 0 μM ≤ SC150 < 0.05 μM)
8,"COc1cc(S(N)(=O)=O)ccc1NCC#Cc1cc2c(N[C@H]3CC[C@H](N4CC(S(C)(=O)=O)C4)CC3)cccc2n1CC(F)(F)F [Compound 190A, 3-methoxy-4-{[3-(4-{[(1R,4R)-4-(3-methanesulfonyl-azetidin-1-yl)cyclo-hexyl]amino}-1-(2,2,2-trifluoroethyl)-1H-indol-2-yl)prop-2-yn-1-yl]amino}benzene-1-sulfonamide]",+ (+ = 0 μM ≤ SC150 < 0.05 μM)
9,"CNC(=O)c1ccc(NCC#Cc2cc3c(N[C@H]4CC[C@H](N5CC6(COC6)C5)CC4)cccc3n2CC(F)(F)F)c(OCC#N)c1 [Compound 242A, 3-(cyanomethoxy)-N-methyl-4-{[3-(4-{[(1R,4R)-4-{2-oxa-6-azaspiro[3.3]heptan-6-yl}cyclohexyl]amino}-1-(2,2,2-trifluoroethyl)-1H-indol-2-yl)prop-2-yn-1-yl]amino}benzamide]",+ (+ = 0 μM ≤ SC150 < 0.05 μM)
10,"CN(C)[C@H]1CC[C@H](Nc2cccc3c2cc(C#CCn2c(=O)oc4cc(S(C)(=O)=O)ccc42)n3CC(F)(F)F)CC1 [Compound 125A, 3-(3-(4-(((1R,4R)-4-(dimethylamino)cyclohexyl)amino)-1-(2,2,2-trifluoroethyl)-1H-indol-2-yl)prop-2-yn-1-yl)-6-(methylsulfonyl)benzo[d]oxazol-2 (3H)-one]",++++ (++++ = 0.2 μM ≤ SC150 < 1 μM)
11,"COc1cc(S(C)(=O)=O)ccc1NCC#Cc1cc2c(NC3CCCC(C(=O)O)C3)cccc2n1CC(F)(F)F (stereo not shown) [Compound 36A, 3-[(2-{3-[(4-methane-sulfonyl-2-methoxy-phenyl)amino]prop-1-yn-1-yl}-1-(2,2,2-trifluoroethyl)-1H-indol-4-yl)amino] cyclohexane-1-carboxylic acid]",+++ (+++ = 0.1 μM ≤ SC150 < 0.2 μM)
12,"CCOc1cc(S(C)(=O)=O)ccc1NCC#Cc1cc2c(N[C@H]3CC[C@H](N4CC5(COC5)C4)CC3)cccc2n1CC(F)(F)F [Compound 234A, 2-{3-[(2-ethoxy-4-methanesulfonylphenyl)amino]prop-1-yn-1-yl}-N-[(1R,4R)-4-{2-oxa-6-azaspiro[3.3]heptan-6-yl}cyclohexyl]-1-(2,2,2-trifluoroethyl)-1H-indol-4-amine]",+ (+ = 0 μM ≤ SC150 < 0.05 μM)

# The next lines start with the values.
row,SC150 (concentration of the compound required to increase the DNA binding activity by 50%),Compound
1,+ (+ = 0 μM ≤ SC150 < 0.05 μM),"COc1cc(S(C)(=O)=O)ccc1NCC#Cc1cc2c(NC3CCN(C(C)C)CC3)cccc2n1CC(F)(F)F [Compound 542A, 2-{3-[(4-methanesulfonyl-2-methoxyphenyl)amino]prop-1-yn-1-yl}-N-[1-(propan-2-yl)piperidin-4-yl]-1-(2,2,2-trifluoroethyl)-1H-indol-4-amine]"
2,+ (+ = 0 μM ≤ SC150 < 0.05 μM),"COCC(CN1CCC(Nc2cccc3c2cc(C#CCNc2ccc(S(N)(=O)=O)cc2OC)n3CC(F)(F)F)CC1)OC (stereo not shown) [Compound 581A, 4-{[3-(4-{[1-(2,3-dimethoxypropyl)piperidin-4-yl]amino}-1-(2,2,2-trifluoroethyl)-1H-indol-2-yl)prop-2-yn-1-yl]amino}-3-methoxybenzene-1-sulfonamide]"
3,+ (+ = 0 μM ≤ SC150 < 0.05 μM),"COc1cc(S(C)(=O)=O)ccc1NCC#Cc1cc2c(N[C@@H]3CCN(CCO)C[C@@H]3F)cccc2n1CC(F)(F)F [Compound 853A, 2-[(3S,4R)-3-fluoro-4-[(2-{3-[(4-methanesulfonyl-2-methoxyphenyl)amino]prop-1-yn-1-yl}-1-(2,2,2-trifluoroethyl)-1H-indol-4-yl)amino]piperidin-1-yl]ethan-1-ol]"
4,+ (+ = 0 μM ≤ SC150 < 0.05 μM),"CN1CCC(Nc2cccc3c2cc(C#CCNc2ccc(S(C)(=O)=O)cc2OCC#N)n3CC(F)(F)F)CC1 [Compound 489A, 2-{5-methanesulfonyl-2-[(3-{4-[(1-methylpiperidin-4-yl)amino]-1-(2,2,2-trifluoroethyl)-1H-indol-2-yl}prop-2-yn-1-yl)amino]phenoxy} acetonitrile]"
5,+ (+ = 0 μM ≤ SC150 < 0.05 μM),CCOC(=O)c1ccc(NCC#Cc2cc3c(N[C@@H]4CCN(C(C)C)C[C@@H]4F)cccc3n2CC(F)(F)F)c(OC)c1 [Compound 821A]
6,+ (+ = 0 μM ≤ SC150 < 0.05 μM),"CNC(=O)c1cc(OC)c(NCC#Cc2cc3c(N[C@@H]4CCN(C)C[C@@H]4F)cccc3n2CC(F)(F)F)cc1F [Compound 826A, 2-fluoro-4-{[3-(4-{[(3S,4R)-3-fluoro-1-methylpiperidin-4-yl]amino}-1-(2,2,2-trifluoroethyl)-1H-indol-2-yl)prop-2-yn-1-yl]amino}-5-methoxy-N-methylbenzamide]"
7,+ (+ = 0 μM ≤ SC150 < 0.05 μM),"CCC(=O)O[C@H](COC)CN1CCC(Nc2cccc3c2cc(C#CCNc2ccc(S(C)(=O)=O)cc2OC)n3CC(F)(F)F)CC1 [Compound 715A, (2S)-1-{4-[(2-{3-[(4-methanesulfonyl-2-methoxyphenyl)amino]prop-1-yn-1-yl}-1-(2,2,2-trifluoroethyl)-1H-indol-4-yl)amino]piperidin-1-yl}-3-methoxypropan-2-yl propanoate]"
8,+ (+ = 0 μM ≤ SC150 < 0.05 μM),"COC[C@@H](O)CN1CCC(Nc2cccc3c2cc(C#CCNc2ccc(S(C)(=O)=O)cc2OCF)n3CC(F)(F)F)CC1 [Compound 666A, (2S)-1-(4-{[2-(3-{[2-(fluoromethoxy)-4-methanesulfonylphenyl]amino}prop-1-yn-1-yl)-1-(2,2,2-trifluoroethyl)-1H-indol-4-yl]amino}piperidin-1-yl)-3-methoxypropan-2-ol]"
9,+ (+ = 0 μM ≤ SC150 < 0.05 μM),"CCC(=O)OC(COC)CN1CCC(Nc2cccc3c2cc(C#CCNc2ccc(S(C)(=O)=O)cc2OC)n3CC(F)(F)F)CC1 (stereo not shown) [Compound 602A, 1-{4-[(2-{3-[(4-methanesulfonyl-2-methoxyphenyl)amino]prop-1-yn-1-yl}-1-(2,2,2-trifluoroethyl)-1H-indol-4-yl)amino]piperidin-1-yl}-3-methoxypropan-2-yl propanoate]"
10,+ (+ = 0 μM ≤ SC150 < 0.05 μM),"COCC(O)CN1CCC(Nc2cccc3c2cc(C#CCNc2ccc(S(C)(=O)=O)cc2OC)n3CCCl)CC1 (stereo not shown) [Compound 700A, 1-(4-{[1-(2-chloroethyl)-2-{3-[(4-methanesulfonyl-2-methoxyphenyl)amino]prop-1-yn-1-yl}-1H-indol-4-yl]amino}piperidin-1-yl)-3-methoxypropan-2-ol]"
